Measurements as given in PubChem BioAssay AID2060609 (Molecular Pharmacology Branch, DTP, NCI, 2025).

System: 855422-203-R-J1-PDC complex spheroids, viability
Assay: Anticancer human tumor 855422-203-R-J1-PDC patient-derived bladder carcinoma cell line growth inhibition [CLK]
Conditions: for IC50: curve of first compound; for viability, T/C: stronger effect = lower value
In short: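 Patient-derived tumor cells grown as complex spheroids with HUVEC endothelial cells and mesenchymal stem cells, treated with drug combinations. Concentrations descend in half-log steps from near clinical Cmax, or from 10 microM if Cmax unknown.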

[1] = second compound 0.0316 µM, first compound 0.0316 µM
[2] = second compound 0.0316 µM, first compound 0.1 µM
[3] = second compound 0.0316 µM, first compound 0.316 µM
[4] = second compound 0.0316 µM, first compound 1 µM
[5] = second compound 0.1 µM, first compound 0.0316 µM
[6] = second compound 0.1 µM, first compound 0.1 µM
[7] = second compound 0.1 µM, first compound 0.316 µM
[8] = second compound 0.1 µM, first compound 1 µM
[9] = second compound 0.316 µM, first compound 0.0316 µM
[10] = second compound 0.316 µM, first compound 0.1 µM
[11] = second compound 0.316 µM, first compound 0.316 µM
[12] = second compound 0.316 µM, first compound 1 µM
[13] = second compound 1 µM, first compound 0.0316 µM
[14] = second compound 1 µM, first compound 0.1 µM
[15] = second compound 1 µM, first compound 0.316 µM
[16] = second compound 1 µM, first compound 1 µM
[17] = second compound 3.16 µM, first compound 0.0316 µM
[18] = second compound 3.16 µM, first compound 0.1 µM
[19] = second compound 3.16 µM, first compound 0.316 µM
[20] = second compound 3.16 µM, first compound 1 µM
[21] = second compound 10 µM, first compound 0.0316 µM
[22] = second compound 10 µM, first compound 0.1 µM
[23] = second compound 10 µM, first compound 0.316 µM
[24] = second compound 10 µM, first compound 1 µM
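Further: spheroids exposed to drugs for seven days before readout.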
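Wherever viability, T/C is given: 100% = DMSO vehicle control wells.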

CC1COCCN1c1cc(C2(S(C)(=N)=O)CC2)nc(-c2ccnc3[nH]ccc23)n1 (centres undefined) + CN1CCN(c2cc(C(=O)Nc3cc4cc(-c5cnn(C)c5)ccc4cn3)ccn2)CC1
IC50 (second compound 0.0316 µM): 2250 nM | IC50 (second compound 0.1 µM): 1850 nM | IC50 (second compound 0.316 µM): < 31.6 nM | IC50 (second compound 1 µM): < 31.6 nM | IC50 (second compound 3.16 µM): < 31.6 nM | IC50 (second compound 10 µM): < 31.6 nM | viability, T/C [1]: 103% | viability, T/C [2]: 117% | viability, T/C [3]: 89.6% | viability, T/C [4]: 93% | viability, T/C (second compound 0.0316 µM, first compound 3.16 µM): 32% | viability, T/C (second compound 0.0316 µM, first compound 10 µM): 10.6% | viability, T/C [5]: 70.6% | viability, T/C [6]: 91% | viability, T/C [7]: 80.3% | viability, T/C [8]: 80.1% | viability, T/C (second compound 0.1 µM, first compound 3.16 µM): 24% | viability, T/C (second compound 0.1 µM, first compound 10 µM): 12.2% | viability, T/C [9]: 9.48% | viability, T/C [10]: 14% | viability, T/C [11]: 7.7% | viability, T/C [12]: 6% | viability, T/C (second compound 0.316 µM, first compound 3.16 µM): 5.18% | viability, T/C (second compound 0.316 µM, first compound 10 µM): 3.25% | viability, T/C [13]: 0.34% | viability, T/C [14]: 0.27% | viability, T/C [15]: 1.14% | viability, T/C [16]: 0.17% | viability, T/C (second compound 1 µM, first compound 3.16 µM): 0.14% | viability, T/C (second compound 1 µM, first compound 10 µM): 0.19% | viability, T/C [17]: 0.75% | viability, T/C [18]: 0.61% | viability, T/C [19]: 0.62% | viability, T/C [20]: 0.51% | viability, T/C (second compound 3.16 µM, first compound 3.16 µM): 0.85% | viability, T/C (second compound 3.16 µM, first compound 10 µM): 0.37% | viability, T/C [21]: 0.44% | viability, T/C [22]: 0.31% | viability, T/C [23]: 0.9% | viability, T/C [24]: 0.36% | viability, T/C (second compound 10 µM, first compound 3.16 µM): 1.72% | viability, T/C (second compound 10 µM, first compound 10 µM): 0.63%

COc1c(OCCCN2CCOCC2)ccc2c3n(c(=NC(=O)c4cnc(N)nc4)nc12)CCN3 + CN1CCN(c2cc(C(=O)Nc3cc4cc(-c5cnn(C)c5)ccc4cn3)ccn2)CC1
IC50 (second compound 0.0316 µM): 16.8 nM | IC50 (second compound 0.1 µM): 16.1 nM | IC50 (second compound 0.316 µM): < 3.16 nM | IC50 (second compound 1 µM): < 3.16 nM | IC50 (second compound 3.16 µM): < 3.16 nM | IC50 (second compound 10 µM): < 3.16 nM | viability, T/C (second compound 0.0316 µM, first compound 0.00316 µM): 99.6% | viability, T/C (second compound 0.0316 µM, first compound 0.01 µM): 62.2% | viability, T/C [1]: 36.4% | viability, T/C [2]: 11.9% | viability, T/C [3]: 3.81% | viability, T/C [4]: 2.23% | viability, T/C (second compound 0.1 µM, first compound 0.00316 µM): 72.3% | viability, T/C (second compound 0.1 µM, first compound 0.01 µM): 63.5% | viability, T/C [5]: 31.1% | viability, T/C [6]: 10.7% | viability, T/C [7]: 3.24% | viability, T/C [8]: 2.43% | viability, T/C (second compound 0.316 µM, first compound 0.00316 µM): 8.06% | viability, T/C (second compound 0.316 µM, first compound 0.01 µM): 6.72% | viability, T/C [9]: 3.02% | viability, T/C [10]: 1.03% | viability, T/C [11]: 0.35% | viability, T/C [12]: 0.51% | viability, T/C (second compound 1 µM, first compound 0.00316 µM): 0.24% | viability, T/C (second compound 1 µM, first compound 0.01 µM): 0.17% | viability, T/C [13]: 0.09% | viability, T/C [14]: 0.07% | viability, T/C [15]: 0.05% | viability, T/C [16]: 0.12% | viability, T/C (second compound 3.16 µM, first compound 0.00316 µM): 0.37% | viability, T/C (second compound 3.16 µM, first compound 0.01 µM): 0.37% | viability, T/C [17]: 0.6% | viability, T/C [18]: 0.12% | viability, T/C [19]: 0.13% | viability, T/C [20]: 0.1% | viability, T/C (second compound 10 µM, first compound 0.00316 µM): 0.23% | viability, T/C (second compound 10 µM, first compound 0.01 µM): 0.33% | viability, T/C [21]: 0.19% | viability, T/C [22]: 0.18% | viability, T/C [23]: 0.32% | viability, T/C [24]: 0.15%
